How the values were obtained:
Assay type in all cases: biochemical
PIP4K2B = target: T1, PIP4K2B (Homo sapiens, UniProt P78356); assay: Trans-FI P kinase assay PIP4K2B (PIP4KtypeIIB inhibition assay); details: compounds listed under IC50 bin headings; 100 uM GTP; read-out: Trans-FI P kinase assays: PIP4K2B IC50
T1 construct: made in house; host or cells: E. coli
T1 sequence (P78356 1-416): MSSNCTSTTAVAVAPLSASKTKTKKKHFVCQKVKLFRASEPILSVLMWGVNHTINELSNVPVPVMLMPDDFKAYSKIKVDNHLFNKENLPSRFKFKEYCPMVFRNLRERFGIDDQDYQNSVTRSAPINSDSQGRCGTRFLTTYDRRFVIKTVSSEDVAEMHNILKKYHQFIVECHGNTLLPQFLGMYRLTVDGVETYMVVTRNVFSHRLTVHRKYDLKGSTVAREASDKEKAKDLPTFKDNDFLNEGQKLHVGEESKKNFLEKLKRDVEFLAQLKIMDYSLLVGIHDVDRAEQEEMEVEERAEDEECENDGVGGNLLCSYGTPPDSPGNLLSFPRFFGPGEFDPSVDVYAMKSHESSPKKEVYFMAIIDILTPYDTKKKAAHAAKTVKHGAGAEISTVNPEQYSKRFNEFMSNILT
Outline: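 Transcreener FI fluorescence read-out of GDP formed by E. coli-expressed GST-PIP4K2B (5 nM) using 100 uM GTP and 80 uM PI5P with DOPE carrier lipid, pH 7.3, 2 h reaction. Compounds (up to 4.8 uM) were preincubated with enzyme 1 h at 27 C; IC50 fitted from residual activity relative to no-inhibitor control.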

PIP4K 2A [1] = target: T2, PIP4K 2A (Homo sapiens, UniProt P48426); assay: Kinase Assay PIP4K2 A (PIP4KtypeIIA inhibition assay); parameters: made in house; host or cells: E. coli; details: compounds listed under IC50 bin headings
T2 sequence (P48426 1-406): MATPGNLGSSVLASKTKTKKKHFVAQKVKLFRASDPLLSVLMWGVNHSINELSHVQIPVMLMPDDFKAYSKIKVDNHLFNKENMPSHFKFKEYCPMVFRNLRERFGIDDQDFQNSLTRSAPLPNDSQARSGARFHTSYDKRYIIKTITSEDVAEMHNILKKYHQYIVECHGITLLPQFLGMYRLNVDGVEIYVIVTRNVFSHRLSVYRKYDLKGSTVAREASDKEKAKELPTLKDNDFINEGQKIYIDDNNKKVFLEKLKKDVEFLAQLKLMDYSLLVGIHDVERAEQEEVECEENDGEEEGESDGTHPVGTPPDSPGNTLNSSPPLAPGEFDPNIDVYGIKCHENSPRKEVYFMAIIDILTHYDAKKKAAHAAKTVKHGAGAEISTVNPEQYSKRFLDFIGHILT
Source text: GST tagged PIP4KtypeIIA and B enzymes were overexpressed in E. Coli and purified to >80% homogeneity. Phosphatidyl inositol-5-phosphate (PI5P, Cat. #850152, Avanti Polar Lipids Inc.) was used as the lipid substrate and phosphatidyl ethanolamine (DOPE 18:1, Cat. #850725, Avanti Polar Lipids Inc.) was used as the carrier lipid for assays. Ultrapure ATP and GTP was purchased from Bellbrooke Labs. ADP Glo reagents were obtained from Promega. Transcreener FI reagent was obtained from Bellbrooke labs.
Enzyme preparation: GST-tagged PIP4KtypeIIA (5 uL, 1.43 mg/mL) was diluted (1:10) to 50 uL using HNE buffer. From the 1:10 diluted stock, a 6.4 uL aliquot was diluted further to 5 mL using HNE buffer to yield 5× enzyme stock (2.5 nM).
Lipid Preparation: In a 10 mL pyrex glass vial, 1 ug of PI5P and 1 ug of DOPE were suspended in 2.5 mL of HEPES buffer mix and 2.5 mL of H:E buffer. The contents were mixed and sonicated for 3 min to yield a translucent lipid stock.
Compound Preparation: Compounds were stored as 5 mM stocks in neat DMSO as room temperature in glass vials. 5 mM stocks were diluted to 2 mM and then serially diluted (3×) in neat DMSO in 96 well polypropylene plates. From the serially diluted stocks, 3 uL was delivered into 250 uL of 25% DMSO (in water) to generate 5× compound stocks. Typically, the highest compound conc. was 24 uM.
The assay volume was kept at 25 uL. To each well of the reaction plate, 10 uL of lipid stock (1:1 ratio PI5P:DOPE) was delivered. This was followed by the addition of 5 uL of compound in 25% DMSO. Then, to each well, 5 uL of 2.5 nM (5×) typeIIA enzyme was delivered. The contents were mixed well and incubated for 1 h at 27 C. After 1 h, reaction was initiated by adding 5 uL of 50 uM ATP and the contents were mixed well with a multi-channel pipetteman. The final concentration of the reagents are as follows: 50 mM HEPES, pH 7.3, 10 mM MgCl2, 20 mM NaCl, 0.01% v/v triton-X100, 5% DMSO, 10 uM ATP, 80 uM (2 ug) PI5P, 2 ug DOPE, and 0.5 nM PIP4KIIA. Typically, the highest conc. of compounds was 4.8 uM and the lowest conc. was 0.
After 1 hr, the reaction was quenched by adding 25 uL of ADP Glo reagent. The contents were incubated for 1 hr. Afterwards, 50 uL of kinase detection reagent was delivered. The contents were incubated for another hour. The luminescence was read using Molecular Devices Paradigm plate reader. […] The blanks were averaged and subtracted from all other wells. Using a calibration curve, RLU was converted to uM ADP (product). IC50 was calculated by plotting the residual activity (expressed as % No inhibitor control) vs. log [Inh. conc.]

PIP4K 2A [2] = target: T2, PIP4K 2A; assay: ADP-glo kinase assay PIP4K 2A; parameters: 4 nM PIP4K2A (full length protein, SignalChem); purchased SignalChem; details: compounds listed under IC50 bin headings
Outline: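 Inhibition was calculated versus DMSO controls from ADP-Glo luminescence and fitted to IC50 over a 10-point, threefold series. Compound was first pre-incubated 15 min at room temperature with PIP4K2A (full-length; 4 nM in the enzyme/substrate mix) and PI(5)P diC8 (100 μM in that mix). The reaction then ran for 1 h after adding 60 μM ATP solution, in MOPS pH 7.2/MgCl2/Tween buffer.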

Structure (SMILES) | IC50 (PIP4K2B) [nM] | IC50 (PIP4K 2A [1]) [nM] | IC50 (PIP4K 2A [2]) [nM]
CC(=O)N1CCOc2ncc(Nc3cc4c(cn3)-c3ccc(N5CCCC5=O)cc3OC4C)cc21 (stereo not drawn) [Example 42, 1-(3-((1-acetyl-2,3-dihydro-1H-pyrido[2,3-b][1,4]oxazin-7-yl)amino)-5-methyl-5H-chromeno[4,3-c]pyridin-8-yl)pyrrolidin-2-one] | 10 to 100 | ≤ 1 | 1 to 10
CC1c2cc(Nc3cccnc3)ncc2-c2ccc(N3CCCC3=O)cc2N1C (stereo not drawn) [Example 43, 1-(5,6-dimethyl-3-(pyridin-3-ylamino)-5,6-dihydrobenzo[c][2,6]naphthyridin-8-yl)pyrrolidin-2-one] | > 1000 | 10 to 100 | 10 to 100
CC1c2cc(Nc3cnc4c(c3)N3C(=O)CC[C@H]3CO4)ncc2-c2ccc(N3CCCC3=O)cc2N1C (stereo partly drawn) [Example 44, (6aS)-2-((5,6-dimethyl-8-(2-oxopyrrolidin-1-yl)-5,6-dihydrobenzo[c][2,6]naphthyridin-3-yl)amino)-6,6a,7,8-tetrahydro-9H-pyrido[2,3-b]pyrrolo[1,2-d][1,4]oxazin-9-one] | 10 to 100 | ≤ 1 | 1 to 10
CC1c2cc(Nc3cnc4c(c3)OCCO4)ncc2-c2ccc(N3CCCC3=O)cc2N1C (stereo not drawn) [Example 45, 1-(3-((2,3-dihydro-[1,4]dioxino[2,3-b]pyridin-7-yl)amino)-5,6-dimethyl-5,6-dihydrobenzo[c][2,6]naphthyridin-8-yl)pyrrolidin-2-one] | 100 to 1000 | 1 to 10 | 10 to 100
CC1Oc2cc(N3CCCC3=O)c(F)cc2-c2cnc(Nc3cccnc3)cc21 (stereo not drawn) [Example 46, 1-(9-fluoro-5-methyl-3-(pyridin-3-ylamino)-5H-chromeno[4,3-c]pyridin-8-yl)pyrrolidin-2-one] | 100 to 1000 | 1 to 10 | 10 to 100
CC1Oc2cc(N3CCCC3=O)c(F)cc2-c2cnc(Nc3cnc4c(c3)N3C(=O)CC[C@H]3CO4)cc21 (stereo partly drawn) [Example 47, (6aS)-2-((9-fluoro-5-methyl-8-(2-oxopyrrolidin-1-yl)-5H-chromeno[4,3-c]pyridin-3-yl)amino)-6,6a,7,8-tetrahydro-9H-pyrido[2,3-b]pyrrolo[1,2-d][1,4]oxazin-9-one] | 1 to 10 | ≤ 1 | ≤ 1
CC1Oc2cc(N3CCCC3=O)ccc2-c2cnc(Nc3cncc(N(C)S(C)(=O)=O)c3)cc21 (stereo not drawn) [Example 48, N-methyl-N-(5-((5-methyl-8-(2-oxopyrrolidin-1-yl)-5H-chromeno[4,3-c]pyridin-3-yl)amino)pyridin-3-yl)methanesulfonamide] | 100 to 1000 | 1 to 10 | 1 to 10
CC1Oc2cc(N3CCCC3=O)ccc2-c2cnc(Nc3cnc4c(c3)N(S(C)(=O)=O)CCO4)cc21 (stereo not drawn) [Example 49, 1-(5-methyl-3-((1-(methylsulfonyl)-2,3-dihydro-1H-pyrido[2,3-b][1,4]oxazin-7-yl)amino)-5H-chromeno[4,3-c]pyridin-8-yl)pyrrolidin-2-one] | 100 to 1000 | ≤ 1 | 1 to 10
CC1Oc2cc(N3CCCC3=O)ccc2-c2cnc(Nc3cncc(F)c3)cc21 (stereo not drawn) [Example 50, 1-(3-((5-fluoropyridin-3-yl)amino)-5-methyl-5H-chromeno[4,3-c]pyridin-8-yl)pyrrolidin-2-one] | > 1000 | 1 to 10 | 10 to 100
CC1Oc2cc(N3CCCC3=O)ccc2-c2cnc(Nc3cncc(N(C4CC4)S(C)(=O)=O)c3)cc21 (stereo not drawn) [Example 51, N-cyclopropyl-N-(5-((5-methyl-8-(2-oxopyrrolidin-1-yl)-5H-chromeno[4,3-c]pyridin-3-yl)amino)pyridin-3-yl)methanesulfonamide] | 10 to 100 | ≤ 1 | 1 to 10
CC1Oc2cc(N3CCCC3=O)ccc2-c2cnc(Nc3cnc4c(c3)N(S(=O)(=O)C3CC3)CCO4)cc21 (stereo not drawn) [Example 52, 1-(3-((1-(cyclopropylsulfonyl)-2,3-dihydro-1H-pyrido[2,3-b][1,4]oxazin-7-yl)amino)-5-methyl-5H-chromeno[4,3-c]pyridin-8-yl)pyrrolidin-2-one] | 100 to 1000 | ≤ 1 | 1 to 10
CC1Oc2cc(N3CCCC3=O)ccc2-c2cnc(Nc3cncc(N4CCN(C)C4=O)c3)cc21 (stereo not drawn) [Example 53, 1-methyl-3-(5-((5-methyl-8-(2-oxopyrrolidin-1-yl)-5H-chromeno[4,3-c]pyridin-3-yl)amino)pyridin-3-yl)imidazolidin-2-one] | 10 to 100 | ≤ 1 | 1 to 10
CC1Oc2cc(N3CCCC3=O)ccc2-c2cnc(Nc3cncc(N4CCCC4=O)c3)cc21 (stereo not drawn) [Example 54, 1-(5-methyl-3-((5-(2-oxopyrrolidin-1-yl)pyridin-3-yl)amino)-5H-chromeno[4,3-c]pyridin-8-yl)pyrrolidin-2-one] | 10 to 100 | ≤ 1 | 1 to 10
CC1Oc2cc(N3CCCC3=O)ccc2-c2cnc(Nc3cncc(N4CCNC4=O)c3)cc21 (stereo not drawn) [Example 55, 1-(5-((5-methyl-8-(2-oxopyrrolidin-1-yl)-5H-chromeno[4,3-c]pyridin-3-yl)amino)pyridin-3-yl)imidazolidin-2-one] | 10 to 100 | ≤ 1 | 1 to 10
CC1Oc2cc(N3CCCC3=O)ccc2-c2cnc(Nc3cncc(N4CCN(Cc5cscn5)C4=O)c3)cc21 (stereo not drawn) [Example 56, 1-(5-((5-methyl-8-(2-oxopyrrolidin-1-yl)-5H-chromeno[4,3-c]pyridin-3-yl)amino)pyridin-3-yl)-3-(thiazol-4-ylmethyl)imidazolidin-2-one] | 1 to 10 | ≤ 1 | ≤ 1
CC1Oc2cc(N3CCCC3=O)ccc2-c2cnc(Nc3cnc4ccn(S(C)(=O)=O)c4c3)cc21 (stereo not drawn) [Example 57, 1-(5-methyl-3-((1-(methylsulfonyl)-1H-pyrrolo[3,2-b]pyridin-6-yl)amino)-5H-chromeno[4,3-c]pyridin-8-yl)pyrrolidin-2-one] | 10 to 100 | ≤ 1 | 1 to 10

— patent publication US11584763B2, “Chromenopyridine derivatives as phosphatidylinositol phosphate kinase inhibitors” (HIBERCELL, INC., priority 2017, dated 2023)
